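In this assay, cells in 96-well plates receive the compound at five concentrations for 48 hours. Endpoints are linearly interpolated between the surrounding concentrations. At the GI50, growth is halved.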 Calls of active or inactive are those of the source. Cut-off read from the data, not from the text of the source: active = GI50 up to about 1.1 µM and inactive = higher.
What was measured:
Assay in all cases: DTP human tumour cell line panel, 48 h
[1] = system: PC-3
[2] = system: SK-MEL-2
[3] = system: A498
[4] = system: SK-MEL-5
[5] = system: EKVX
[6] = system: T47D
[7] = system: OVCAR-4
[8] = system: HCC 2998
[9] = system: MOLT-4
[10] = system: HCT-15
[11] = system: HCT-116
[12] = system: SF-268
[13] = system: UACC-62
[14] = system: OVCAR-8
[15] = system: U-251
[16] = system: MDA-MB-435
[17] = system: RPMI-8226
[18] = system: NCI-H522

| Compound | GI50 [1] | GI50 [2] | GI50 [3] | GI50 [4] | GI50 [5] | GI50 [6] | GI50 [7] | GI50 [8] | GI50 [9] | GI50 [10] | GI50 [11] | GI50 [12] | GI50 [13] | GI50 [14] | GI50 [15] | GI50 [16] | GI50 [17] | GI50 [18] |
| --- | --- | --- | --- | --- | --- | --- | --- | --- | --- | --- | --- | --- | --- | --- | --- | --- | --- | --- |
| C[C@@H](NC(=O)[C@@H]1C[C@]1(C)COC(=O)c1cc([N+](=O)[O-])cc([N+](=O)[O-])c1)c1cccc2ccccc12 | > 100 µM (inactive) | > 100 µM (inactive) | > 100 µM (inactive) | > 100 µM (inactive) | > 100 µM (inactive) | 65.3 µM (inactive) | > 100 µM (inactive) | > 100 µM (inactive) | > 100 µM (inactive) | > 100 µM | > 100 µM (inactive) | > 100 µM (inactive) | 50 µM (inactive) | > 100 µM (inactive) | 99.3 µM (inactive) | > 100 µM (inactive) | > 100 µM (inactive) |  |
| CN(C)C1(N(C)C)Oc2c(c(=O)n(C)c(=O)n2C)C(c2ccccc2Br)C1(F)F (configuration not stated) | > 100 µM (inactive) | > 100 µM (inactive) | > 100 µM (inactive) | > 100 µM (inactive) | > 100 µM (inactive) | > 100 µM (inactive) | > 100 µM (inactive) | > 100 µM (inactive) | > 100 µM (inactive) | > 100 µM | > 100 µM (inactive) | > 100 µM (inactive) | > 100 µM (inactive) |  | > 100 µM (inactive) | > 100 µM (inactive) | > 100 µM (inactive) |  |
| O=C(O)CSC(NC(=O)C(C(F)(F)F)C(F)(F)F)(C(F)(F)F)C(F)(F)F | > 100 µM (inactive) | > 100 µM (inactive) | 71 µM (inactive) | > 100 µM (inactive) | > 100 µM (inactive) | > 100 µM (inactive) |  | > 100 µM (inactive) | > 100 µM (inactive) | > 100 µM | > 100 µM (inactive) | > 100 µM (inactive) |  | 23.2 µM (inactive) | > 100 µM (inactive) | > 100 µM (inactive) | > 100 µM (inactive) |  |
| Cc1cn(CCCCOC(=O)NC(CCCNC(=N)N)C(=O)O)c(=O)[nH]c1=O (configuration not stated) | > 100 µM (inactive) | > 100 µM (inactive) | > 100 µM (inactive) |  | > 100 µM (inactive) | > 100 µM (inactive) | > 100 µM (inactive) | > 100 µM (inactive) | > 100 µM (inactive) | > 100 µM | > 100 µM (inactive) | > 100 µM (inactive) | > 100 µM (inactive) | > 100 µM (inactive) | > 100 µM (inactive) | > 100 µM (inactive) | > 100 µM (inactive) |  |
| ON=C1CCCCC(=NO)CCCC1 | > 100 µM (inactive) | > 100 µM (inactive) | > 100 µM (inactive) | > 100 µM (inactive) |  | > 100 µM (inactive) | > 100 µM (inactive) | > 100 µM (inactive) |  | > 100 µM | > 100 µM (inactive) | > 100 µM (inactive) | > 100 µM (inactive) | > 100 µM (inactive) | > 100 µM (inactive) | > 100 µM (inactive) | > 100 µM (inactive) | > 100 µM (inactive) |
| O=C1Nc2ccc(Br)cc2/C1=N/c1ccc(Cl)cc1 | 25.3 µM (inactive) |  | > 100 µM (inactive) | 4.15 µM (inactive) | 15.9 µM (inactive) | 16.9 µM (inactive) |  | 19.1 µM (inactive) | 25.6 µM (inactive) | 11.1 µM | 14.3 µM (inactive) | 14.6 µM (inactive) | 0.237 µM (active) | 11.7 µM (inactive) | 23.8 µM (inactive) | 2.87 µM (inactive) | 4.39 µM (inactive) | 7.66 µM (inactive) |
| Cc1cc(=O)n2nc(SCc3ccccc3)sc2n1 | > 100 µM (inactive) |  | > 100 µM (inactive) | 43.2 µM (inactive) |  | 42.3 µM (inactive) | > 100 µM (inactive) | > 100 µM (inactive) | 46.5 µM (inactive) | > 100 µM | > 100 µM (inactive) | > 100 µM (inactive) | 28.4 µM (inactive) | > 100 µM (inactive) | > 100 µM (inactive) | 66.4 µM (inactive) | > 100 µM (inactive) | > 100 µM (inactive) |
| CC1=NN(c2cccc(Cl)c2)C2(SCC(=O)N2c2nc3ccccc3s2)/C1=C\c1ccc(Cl)cc1 (configuration not stated) | 15.7 µM (inactive) | 16.7 µM (inactive) | 17.3 µM (inactive) | 13.8 µM (inactive) | 33.5 µM (inactive) | 24.8 µM (inactive) | 17.3 µM (inactive) | 14.5 µM (inactive) | 4.34 µM (inactive) | 13.9 µM | 16.3 µM (inactive) | 17.9 µM (inactive) |  | 18.9 µM (inactive) | 13.8 µM (inactive) | 19.9 µM (inactive) | 15.6 µM (inactive) | 20.3 µM (inactive) |
| Nc1cc(F)ccc1CC(=O)O | > 100 µM (inactive) | > 100 µM (inactive) | > 100 µM (inactive) | > 100 µM (inactive) | > 100 µM (inactive) | > 100 µM (inactive) |  | > 100 µM (inactive) | > 100 µM (inactive) | > 100 µM | > 100 µM (inactive) | > 100 µM (inactive) | > 100 µM (inactive) | > 100 µM (inactive) | > 100 µM (inactive) | > 100 µM (inactive) | > 100 µM (inactive) | > 100 µM (inactive) |
| NC(Cc1c[nH]c2ccc([N+](=O)[O-])cc12)C(=O)O (configuration not stated) | > 100 µM (inactive) | > 100 µM (inactive) | > 100 µM (inactive) | > 100 µM (inactive) | > 100 µM (inactive) | > 100 µM (inactive) | > 100 µM (inactive) |  | > 100 µM (inactive) | > 100 µM | > 100 µM (inactive) | > 100 µM (inactive) | > 100 µM (inactive) | > 100 µM (inactive) | > 100 µM (inactive) | > 100 µM (inactive) | > 100 µM (inactive) | > 100 µM (inactive) |
| O=CN1CCN(C(=O)c2cc(Cl)cc(Cl)c2)C1=S | 16.6 µM (inactive) | 16.9 µM (inactive) | 15.3 µM (inactive) |  | 17.9 µM (inactive) | 10.7 µM (inactive) | 17.1 µM (inactive) | 17.6 µM (inactive) | 15 µM (inactive) | 17 µM | 18.6 µM (inactive) | 16.1 µM (inactive) | 15.8 µM (inactive) | 19.1 µM (inactive) | 17 µM (inactive) | 14.2 µM (inactive) | 2.44 µM (inactive) | 3.5 µM (inactive) |
| C=C1C2CC3CCC2C(OC(=O)c2ccccc2C(=O)O)C13 (configuration not stated) | > 100 µM (inactive) | > 100 µM (inactive) | > 100 µM (inactive) | > 100 µM (inactive) | > 100 µM (inactive) | > 100 µM (inactive) | > 100 µM (inactive) | > 100 µM (inactive) | > 100 µM (inactive) | > 100 µM | > 100 µM (inactive) | > 100 µM (inactive) | > 100 µM (inactive) | > 100 µM (inactive) | > 100 µM (inactive) | > 100 µM (inactive) |  | > 100 µM (inactive) |

From ChEMBL document CHEMBL1201862, “PubChem BioAssay data set” (2004)
